The record followed here is patent US12018303B2, “Method for preparing amines from carbonyl compounds by transaminase reaction under salt precipitation” (ENZYMICALS AG, priority 2017, dated 2024).

Read-outs that look alike come from different tables or passages of the source.

Data set [1] deals with amine transaminases AfATA, GzATA, NfATA, AoATA, AtATA, MvATA, SpATA. Type of data set: biochemical.
The conditions of data set [2]: donor amine salt.
A short description of data set [3]: Stability of salt solutions observed in the screening. Type of data set: physicochemical. The settings on record: certain salt solutions; strong discoloration. From the text:
The results of table 3 show clearly that certain acids allow significant differences in solubility between investigated salts. In this screening especially differences between product amines and the commonly used donor amines isopropylamine/alanine were targeted. Based on this consideration the following acids appear most applicable: 34CA, 34NA, 43CNA and 3DPPA. In addition, 2DPPA was identified as suitable acid. Acids with less strong differences are PCPA, 24CNA, 25CNA, 35DNOT, 3NA and 435CNBA, which might be useful for other product amines.

For `O=C(O)C(c1ccccc1)c1ccccc1` [DPAA, diphenylacetic acid], the “inhibition of amine transaminases” value in data set [1] (pH 7.5) is listed as “strongly inhibited”.

As for `CC(C)N.O=C(O)c1ccc(Cl)c([N+](=O)[O-])c1` [Compound 5, isopropylamine salt of 4-chloro-3-nitrobenzoic acid (43CNA)], the solubility in data set [2] turned out to be 993.

Take `O=C(O)CC(c1ccccc1)c1ccccc1` [Compound 3DPPA, 3,3-diphenylpropionic acid]: the “inhibition of amine transaminases” value in data set [1] was “does not significantly inhibit”.

`O=C(O)c1ccc(Cl)c([N+](=O)[O-])c1` [Compound 43CNA, 4-chloro-3-nitro-benzoic acid]: in data set [1] (pH 7.5), the “inhibition of amine transaminases” value is on record as “strongly inhibited”.

As to `O=C(O)C1(c2ccccc2)CCCC1` [PCPA, 1-Phenylcyclo-pentane-carboxylic acid], in data set [3], the “stability of salt solutions” value was “unknown decomposition reaction”.
